Test results as given in patent US7019014B2, “Process for producing anticancer agent LL-D45042” (Wyeth Holdings Corporation, priority 2003, dated 2006).
Converted amounts (≈) assume the structure as drawn.

Experiments:
brain cancer line U87MG [1] = conditions: previously established; PTEN mutation, constitutive mTOR activation; cited from earlier work
[2] = test system: breast cancer line MDA435; conditions: previously established; no PTEN mutation; cited from earlier work
[3] = test system: breast cancer line MDA435; test: In vitro anticancer test: growth inhibition in MDA435 tumour cells; format: cell-based; conditions: no PTEN mutation, multi-dose testing
Method: (§1) The in vitro anticancer activity of LL-D45042 is determined by measuring the concentration of compound required to inhibit the growth of 50% of cells in two tumour cell lines. […] The elevated sensitivity is due to its genetic mutation in the PTEN tumor suppressor gene leading to constitutive activation of mTOR signaling pathway. […] LL-D45042 is also evaluated in a binding assay of FKBP12, a cellular receptor of rapamycin, to determine its binding affinity. The results are given in Table 2, with IC50's reported in units of ng/mL.
(§2) These determinations are made by multi-dose testing of LL-D45042 and direct comparisons to the reference samples.

brain cancer line U87MG [4] = test: In vitro anticancer test: growth inhibition in U87MG tumour cells; format: cell-based; conditions: Homo sapiens, U-87 MG, PTEN mutant, multi-dose testing
Method: as §1, §2

FKBP12 = FKBP12 (Homo sapiens, UniProt P62942); test: FKBP12 binding assay; conditions: FKBP12, a cellular receptor of rapamycin; read-out: Protein Binding, FKBP (IC50) (converted)
Sequence of FKBP12 (P62942 whole entry, species assumed): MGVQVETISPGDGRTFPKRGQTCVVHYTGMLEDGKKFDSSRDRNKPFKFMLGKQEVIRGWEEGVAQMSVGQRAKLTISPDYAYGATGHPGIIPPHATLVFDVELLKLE
Method: as §1, §2

SMILES: CO[C@H]1C[C@@H]2CC[C@@H](C)[C@@](O)(O2)C(=O)C(=O)N2CCCC[C@H]2C(=O)O[C@H]([C@H](C)C[C@@H]2CC[C@@H](O)[C@H](OC)C2)CC(=O)[C@H](C)/C=C(\C)[C@@H](O)[C@@H](OC)C(=O)[C@H](C)C[C@H](C)/C=C/C=C/C=C/1C [rapamycin, Rapamycin]
- Sensitivity of U87MG to growth inhibition (brain cancer line U87MG [1]): highly sensitive
- Sensitivity of MDA435 to growth inhibition [2]: rapamycin-resistant phenotype

SMILES: CO[C@@H]1C[C@H](C[C@@H](C)[C@@H]2CC(=O)[C@H](C)/C=C(\C)[C@@H](O)[C@@H](O)C(=O)[C@H](C)C[C@H](C)/C=C/C=C/C=C(\C)[C@@H](O)C[C@@H]3CC[C@@H](C)[C@](O)(CC(=O)N4CCCC[C@H]4C(=O)O2)O3)CC[C@H]1O [LL-D45042]
- IC50 [3]: > 1 µg/mL
- IC50 (brain cancer line U87MG [4]): 0.035 µg/mL (≈ 0.0401 µM)
- IC50 (FKBP12): 401 nM
